Laboratory results: the supplement of paper PMC10307832

Experiments:
Assay in all cases: relative viability (nuclei count vs DMSO), 5 days (fraction); higher = more cells survive
[1] = compound: C1=CC=C(C(=C1)C2=CC=C(C=C2)C3=CSC4=C3C(=C(C(=O)N4)C#N)O)O + NC(=O)Nc1cc(-c2cccc(F)c2)sc1C(=O)N[C@H]1CCCNC1 [AZD7762] (partner 0.2 µM)
Method in brief: (§1)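 Relative viability is defined as nuclei in treated wells over nuclei in vehicle wells. Duplicate plates were run and medians reported. Lung cancer cell lines in 1536-well plates were dosed by pin tool one day after seeding, with one drug or with a fixed anchor-drug dose plus five library-drug doses (not always all listed) in √10 steps, and nuclei were counted after 5 days.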

[2] = compound: C1=CC=C(C(=C1)C2=CC=C(C=C2)C3=CSC4=C3C(=C(C(=O)N4)C#N)O)O + O=C(CCCCCCC(=O)Nc1ccccc1)NO [Vorinostat] (partner 1 µM)
Method in brief: as §1

TGX 221 + Alpelisib = compound: CC1=CN2C(=O)C=C(N=C2C(=C1)C(C)NC3=CC=CC=C3)N4CCOCC4 [TGX 221] + Cc1nc(NC(=O)N2CCC[C@H]2C(N)=O)sc1-c1ccnc(C(C)(C)C(F)(F)F)c1 [Alpelisib] (partner 2 µM)
Method in brief: as §1

TGX 221 + Bortezomib = compound: CC1=CN2C(=O)C=C(N=C2C(=C1)C(C)NC3=CC=CC=C3)N4CCOCC4 [TGX 221] + CC(C)C[C@H](NC(=O)[C@H](Cc1ccccc1)NC(=O)c1cnccn1)B(O)O [Bortezomib] (partner 0.002 µM)
Method in brief: as §1

Row | Cell Line | relative viability ([1]; first compound 0.253 µM) | relative viability ([1]; first compound 0.8 µM) | relative viability ([1]; first compound 2.53 µM) | relative viability ([1]; first compound 8 µM) | relative viability ([2]; first compound 0.253 µM) | relative viability ([2]; first compound 0.8 µM) | relative viability ([2]; first compound 2.53 µM) | relative viability ([2]; first compound 8 µM) | relative viability ([1]; first compound 0.08 µM) | relative viability ([2]; first compound 0.08 µM) | relative viability (TGX 221 + Alpelisib; first compound 0.08 µM) | relative viability (TGX 221 + Alpelisib; first compound 0.253 µM) | relative viability (TGX 221 + Alpelisib; first compound 0.8 µM) | relative viability (TGX 221 + Alpelisib; first compound 2.53 µM) | relative viability (TGX 221 + Alpelisib; first compound 8 µM) | relative viability (TGX 221 + Bortezomib; first compound 0.08 µM) | relative viability (TGX 221 + Bortezomib; first compound 0.253 µM) | relative viability (TGX 221 + Bortezomib; first compound 0.8 µM) | relative viability (TGX 221 + Bortezomib; first compound 2.53 µM) | relative viability (TGX 221 + Bortezomib; first compound 8 µM)
1 | NCI-H1648 | 0.676 | 0.734 | 0.689 | 0.608 | 0.319 | 0.876 | 0.593 | 0.391 | – | – | – | – | – | – | – | – | – | – | – | –
2 | NCI-H1755 | 0.466 | 0.572 | 0.435 | 0.377 | 0.913 | 0.735 | 0.761 | 0.687 | 0.44 | 0.822 | 0.876 | 0.706 | 0.651 | 0.49 | 0.437 | 1.03 | 0.855 | 0.97 | 0.887 | 0.886
3 | PC-3 [JPC-3] | 0.935 | 0.645 | 0.745 | 0.618 | 0.909 | 0.758 | 0.658 | 0.662 | 0.597 | 0.809 | 1.01 | 0.978 | 1 | 0.929 | 0.894 | 0.759 | 0.73 | 0.883 | 0.735 | 0.851
4 | HCC-44 | 1.11 | 1.01 | 1.01 | 1.02 | 1.12 | 1.13 | 1.08 | 1.06 | 1.13 | 1.15 | 0.784 | 0.667 | 0.632 | 0.597 | 0.473 | 0.951 | 0.935 | 0.945 | 0.851 | 0.997
5 | CAL-12T | 0.653 | 0.571 | 0.615 | 0.648 | 0.817 | 0.884 | 0.743 | 0.643 | 0.671 | 0.65 | 1.17 | 1.1 | 1.21 | 0.852 | 0.64 | – | 0.952 | 0.918 | – | 1.05
6 | ChaGo-K-1 | 0.936 | 0.904 | 0.92 | 0.838 | 0.821 | 0.801 | 0.822 | 0.683 | 0.834 | 0.733 | – | – | – | – | – | 0.866 | 1.02 | 1.02 | 0.984 | 1.16
7 | NCI-H2126 | 1.09 | 0.973 | 1.1 | 0.763 | 0.787 | 0.803 | 0.832 | 0.732 | 1.01 | 0.846 | 0.708 | 0.652 | 0.611 | 0.58 | 0.617 | 1.09 | 1.08 | 1.06 | 1.06 | 1.08
8 | HCC-827 | 0.192 | 0.199 | 0.231 | 0.176 | 0.946 | 0.95 | 0.872 | 0.918 | 0.233 | 0.666 | 0.929 | 0.807 | 0.904 | 0.482 | 0.438 | 0.981 | 1.06 | 1.07 | 1.17 | 1.07
9 | LCLC-97TM1 | 0.259 | 0.258 | 0.278 | 0.148 | 1.42 | 0.636 | 0.724 | 0.431 | 0.225 | 0.614 | 0.261 | 0.246 | 0.287 | 0.199 | 0.214 | 0.586 | 0.421 | 0.504 | 0.736 | 0.405
10 | HCC-15 | 1.38 | 1.46 | 1.32 | 0.93 | 0.954 | 0.869 | 0.905 | 0.725 | 1.4 | 0.861 | 0.893 | 0.788 | 0.958 | 0.831 | 0.776 | 1.02 | 0.953 | 0.93 | 1.04 | 1.06
11 | NCI-H727 | 0.541 | 0.603 | 0.543 | 0.434 | 1.26 | 1.24 | 1.21 | 1.05 | 0.569 | 1.38 | 0.591 | 0.436 | 0.484 | 0.557 | 0.513 | 0.827 | 0.829 | 1.03 | 0.737 | 0.893
12 | NCI-H2170 | 0.722 | 0.875 | 0.842 | 0.548 | 0.819 | 0.921 | 0.778 | 0.616 | 0.898 | 0.9 | 0.754 | 0.704 | 0.747 | 0.7 | 0.682 | – | – | – | – | –
13 | 201T | 0.616 | 0.652 | 0.704 | 0.717 | 0.952 | 0.811 | 1 | 0.902 | 0.634 | 0.874 | – | 0.942 | 0.943 | 0.872 | 0.827 | – | 1.15 | 1.08 | 1.05 | 0.996
14 | NCI-H838 | 0.923 | 1.02 | 0.875 | 0.839 | 0.691 | 0.775 | 0.704 | 0.744 | 0.914 | 0.749 | 0.902 | 0.88 | 0.849 | 0.723 | 0.631 | 0.751 | 0.853 | 0.713 | 0.712 | 0.544
15 | NCI-H1915 | 0.754 | 0.696 | 0.697 | 0.649 | 0.468 | 0.449 | 0.552 | 0.46 | 0.657 | 0.455 | 1 | 0.999 | 1.08 | 1.1 | 1.01 | 0.897 | 0.963 | 1.04 | 0.914 | 1.02
16 | LCLC-103H | 0.731 | 0.803 | 0.728 | 0.743 | 0.81 | 0.707 | 0.767 | 0.728 | 0.737 | 0.722 | 1.03 | 0.896 | 0.776 | 0.743 | 0.654 | 0.999 | 1.12 | 0.981 | 1.01 | 1.06
17 | SK-LU-1 | – | – | – | – | 0.727 | 0.655 | 0.761 | 0.671 | – | 0.737 | 0.948 | 0.788 | 0.903 | 0.9 | 0.731 | 1.04 | 1.09 | 1.04 | 1.38 | 1.11
18 | NCI-H1563 | – | – | – | – | – | – | – | – | – | – | 0.834 | 0.777 | 0.658 | 0.607 | 0.594 | 0.925 | 0.783 | 0.795 | 0.719 | 0.687
